Measured values from PubChem BioAssay (NCI).
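Growth conditions: 96-well plates. Treatment: test compound, 48 hours, 5 concentrations. Analysis: linear interpolation between bracketing concentrations; unreached endpoints set to highest concentration. TGI: concentration producing complete growth inhibition.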

What was measured:
Assay in all cases: inhibition of tumour cell growth, NCI panel, 48 h
OVCAR-4 ovarian = system: OVCAR-4 ovarian
DU-145 prostate = system: DU-145 prostate
PC-3 prostate = system: PC-3 prostate
MDA-MB-435 = system: MDA-MB-435
KM12 colon = system: KM12 colon
SK-MEL-28 melanoma = system: SK-MEL-28 melanoma
LOX IMVI melanoma = system: LOX IMVI melanoma
SF-295 CNS = system: SF-295 CNS
SF-268 CNS = system: SF-268 CNS
OVCAR-3 ovarian = system: OVCAR-3 ovarian
OVCAR-5 ovarian = system: OVCAR-5 ovarian
HOP-92 NSCLC = system: HOP-92 NSCLC
UACC-257 melanoma = system: UACC-257 melanoma
MCF7 breast = system: MCF7 breast
T-47D breast = system: T-47D breast
OVCAR-8 ovarian = system: OVCAR-8 ovarian
NCI-H226 lung = system: NCI-H226 lung
SK-MEL-2 melanoma = system: SK-MEL-2 melanoma
EKVX NSCLC = system: EKVX NSCLC
A549 NSCLC = system: A549 NSCLC
786-0 renal = system: 786-0 renal
NCI/ADR-RES ovarian = system: NCI/ADR-RES ovarian
RXF 393 renal = system: RXF 393 renal
A498 renal = system: A498 renal
NCI-H522 lung = system: NCI-H522 lung
COLO 205 colon = system: COLO 205 colon
HCT-15 colon = system: HCT-15 colon
UACC-62 melanoma = system: UACC-62 melanoma
NCI-H460 lung = system: NCI-H460 lung
SNB-75 CNS = system: SNB-75 CNS
BT-549 breast = system: BT-549 breast
U251 CNS = system: U251 CNS
SR leukemia = system: SR leukemia
TK-10 renal = system: TK-10 renal
MOLT-4 leukemia = system: MOLT-4 leukemia
MDA-MB-231 breast = system: MDA-MB-231 breast
UO-31 renal = system: UO-31 renal
HOP-62 NSCLC = system: HOP-62 NSCLC
IGROV1 ovarian = system: IGROV1 ovarian
SNB-19 CNS = system: SNB-19 CNS
HS 578T breast = system: HS 578T breast
ACHN renal = system: ACHN renal
MALME-3M melanoma = system: MALME-3M melanoma
MDA-N = system: MDA-N
CAKI-1 renal = system: CAKI-1 renal
SK-MEL-5 melanoma = system: SK-MEL-5 melanoma
HCT-116 colon = system: HCT-116 colon
M14 melanoma = system: M14 melanoma
SN12C renal = system: SN12C renal
RPMI-8226 leukemia = system: RPMI-8226 leukemia
HT29 colon = system: HT29 colon
K-562 leukemia = system: K-562 leukemia
SK-OV-3 ovarian = system: SK-OV-3 ovarian
HL-60(TB) leukemia = system: HL-60(TB) leukemia
SF-539 CNS = system: SF-539 CNS
SW-620 colon = system: SW-620 colon
NCI-H23 lung = system: NCI-H23 lung
CCRF-CEM leukemia = system: CCRF-CEM leukemia

## NCCCN1CCN(c2ccccc2)CC1
OVCAR-4 ovarian
  TGI: > 100 µM
DU-145 prostate
  TGI: > 100 µM
PC-3 prostate
  TGI: > 100 µM
MDA-MB-435
  TGI: > 100 µM
KM12 colon
  TGI: > 100 µM
SK-MEL-28 melanoma
  TGI: > 100 µM
LOX IMVI melanoma
  TGI: > 100 µM
SF-295 CNS
  TGI: > 100 µM
SF-268 CNS
  TGI: > 100 µM
OVCAR-3 ovarian
  TGI: 87.7 µM
OVCAR-5 ovarian
  TGI: > 100 µM
HOP-92 NSCLC
  TGI: > 100 µM
UACC-257 melanoma
  TGI: > 100 µM
MCF7 breast
  TGI: > 100 µM
T-47D breast
  TGI: > 100 µM
OVCAR-8 ovarian
  TGI: > 100 µM
NCI-H226 lung
  TGI: > 100 µM
SK-MEL-2 melanoma
  TGI: > 100 µM
EKVX NSCLC
  TGI: > 100 µM
A549 NSCLC
  TGI: > 100 µM
786-0 renal
  TGI: > 100 µM
NCI/ADR-RES ovarian
  TGI: > 100 µM
RXF 393 renal
  TGI: > 100 µM
A498 renal
  TGI: > 100 µM
NCI-H522 lung
  TGI: > 100 µM
COLO 205 colon
  TGI: > 100 µM
HCT-15 colon
  TGI: > 100 µM
UACC-62 melanoma
  TGI: > 100 µM
NCI-H460 lung
  TGI: > 100 µM
SNB-75 CNS
  TGI: > 100 µM
BT-549 breast
  TGI: > 100 µM
U251 CNS
  TGI: > 100 µM
SR leukemia
  TGI: > 100 µM
TK-10 renal
  TGI: > 100 µM
MOLT-4 leukemia
  TGI: > 100 µM
MDA-MB-231 breast
  TGI: > 100 µM
UO-31 renal
  TGI: > 100 µM
HOP-62 NSCLC
  TGI: > 100 µM
IGROV1 ovarian
  TGI: > 100 µM
SNB-19 CNS
  TGI: > 100 µM
HS 578T breast
  TGI: > 100 µM
ACHN renal
  TGI: > 100 µM
MALME-3M melanoma
  TGI: > 100 µM
MDA-N
  TGI: > 100 µM
CAKI-1 renal
  TGI: > 100 µM
SK-MEL-5 melanoma
  TGI: > 100 µM
HCT-116 colon
  TGI: > 100 µM
M14 melanoma
  TGI: > 100 µM
SN12C renal
  TGI: > 100 µM
RPMI-8226 leukemia
  TGI: > 100 µM
HT29 colon
  TGI: > 100 µM
K-562 leukemia
  TGI: > 100 µM

## c1ccc2c(CC3NCCN3)cccc2c1
OVCAR-4 ovarian
  TGI: > 100 µM
DU-145 prostate
  TGI: > 100 µM
PC-3 prostate
  TGI: > 100 µM
SK-OV-3 ovarian
  TGI: > 100 µM
MDA-MB-435
  TGI: > 100 µM
KM12 colon
  TGI: > 100 µM
SK-MEL-28 melanoma
  TGI: > 100 µM
LOX IMVI melanoma
  TGI: > 100 µM
SF-295 CNS
  TGI: > 100 µM
SF-268 CNS
  TGI: > 100 µM
OVCAR-3 ovarian
  TGI: > 100 µM
HL-60(TB) leukemia
  TGI: > 100 µM
OVCAR-5 ovarian
  TGI: > 100 µM
HOP-92 NSCLC
  TGI: > 100 µM
UACC-257 melanoma
  TGI: > 100 µM
SF-539 CNS
  TGI: > 100 µM
MCF7 breast
  TGI: > 100 µM
T-47D breast
  TGI: > 100 µM
OVCAR-8 ovarian
  TGI: > 100 µM
NCI-H226 lung
  TGI: > 100 µM
SK-MEL-2 melanoma
  TGI: > 100 µM
EKVX NSCLC
  TGI: > 100 µM
A549 NSCLC
  TGI: > 100 µM
SW-620 colon
  TGI: > 100 µM
786-0 renal
  TGI: > 100 µM
NCI-H23 lung
  TGI: > 100 µM
NCI/ADR-RES ovarian
  TGI: > 100 µM
RXF 393 renal
  TGI: > 100 µM
A498 renal
  TGI: > 100 µM
CCRF-CEM leukemia
  TGI: > 100 µM
NCI-H522 lung
  TGI: > 100 µM
COLO 205 colon
  TGI: > 100 µM
HCT-15 colon
  TGI: > 100 µM
UACC-62 melanoma
  TGI: > 100 µM
NCI-H460 lung
  TGI: > 100 µM
SNB-75 CNS
  TGI: > 100 µM
BT-549 breast
  TGI: > 100 µM
U251 CNS
  TGI: > 100 µM
SR leukemia
  TGI: > 100 µM
TK-10 renal
  TGI: > 100 µM
MOLT-4 leukemia
  TGI: > 100 µM
MDA-MB-231 breast
  TGI: > 100 µM
HOP-62 NSCLC
  TGI: > 100 µM
IGROV1 ovarian
  TGI: > 100 µM
SNB-19 CNS
  TGI: > 100 µM
HS 578T breast
  TGI: > 100 µM
ACHN renal
  TGI: > 100 µM
MALME-3M melanoma
  TGI: > 100 µM
MDA-N
  TGI: > 100 µM
CAKI-1 renal
  TGI: > 100 µM
SK-MEL-5 melanoma
  TGI: > 100 µM
HCT-116 colon
  TGI: > 100 µM
M14 melanoma
  TGI: > 100 µM
SN12C renal
  TGI: > 100 µM
RPMI-8226 leukemia
  TGI: > 100 µM
HT29 colon
  TGI: > 100 µM
K-562 leukemia
  TGI: > 100 µM
